According to paper PMC5938390, “Tachyplesin Causes Membrane Instability That Kills Multidrug-Resistant Bacteria by Inhibiting the 3-Ketoacyl Carrier Protein Reductase FabG” (Frontiers in Microbiology, 2018):
Positions of bridges follow the written chain, without caps; N, C: chain ends. Residues, ends and D or L forms follow the SMILES beside them.

Columns and labels:
[1] = tested on: Escherichia coli strain DH5α; conditions: 37°C, 2 mg/ml, stability judged by MIC against DH5α, tested during the first 6 h
Description: (§1) These studies were carried out as we previously reported with slight modifications and briefly introduced as follows ([Liu et al., 2017]). […] Cytotoxicity in different cell lines was assessed using the Cell Proliferation Kit II (XTT) (Roche), and cytotoxicity in hemocytes was evaluated by the increase in the absorbance at 540 nm after peptide incubation. Membrane rupture was indicated by the entrance of the DNA-binding fluorescent dye PI into MDR clinical isolates of P. aeruginosa strain 1409. Membrane translocation of N-terminal FITC-conjugated tachyplesin III (purity ≥ 95%, synthesized by GL Biochem Co., Ltd, Shanghai, China) into MDR clinical isolates of Acinetobacter baumannii strain 1408 were detected by confocal laser-scanning microscopy.
Tachyplesin III (2 mg/ml) was incubated in either sterile deionized water or mouse serum at 37°C for various lengths of time, aliquots were taken, and MICs against DH5α cells were tested. Stability of the MIC indicates the stability of tachyplesin III.

[2] = tested on: 293FT (human embryonic kidney cell line); conditions: concentration increased from 100 mg/L to 200 mg/L, XTT
Description: as §1
(§2) Cytotoxicity of tachyplesin III was tested by hemolysis and cell viability assays. (A) Tachyplesin III dissolved in 0.9% saline was added to mouse erythrocytes that were diluted with the same buffer. After 30 min of incubation at 37°C and then centrifugation at 1000 g for 15 min, supernatants were diluted 1:4 with 0.9% saline, and absorbance at 540 nm was tested. With 1% Triton X-100 (v/v) to determine 100% hemolysis and 0.9% saline as the negative control, the hemolysis rate was calculated as [(Absorbancesample^-Absorbancecontrol)/(Absorbance100%^-Absorbancecontrol)] × 100. Cytotoxicity was assessed using the Cell Proliferation Kit II (XTT) (Roche) for (B) L929 (mouse fibroblast cell line), (C) 293FT (human embryonic kidney cell line) and (D) A549 (adenocarcinomic human alveolar basal epithelial cell line) cells. Absorbance [A492-A690 nm] was used to quantify viable cells.

[3] = tested on: A549 (adenocarcinomic human alveolar basal epithelial cell line); conditions: concentration increased from 200 mg/L to 400 mg/L, XTT
Description: as §1, §2

P. aeruginosa 1409 = assay: MIC against MDR clinical isolate; format: cell-based, Pseudomonas aeruginosa; conditions: P. aeruginosa 1409
[4] = tested on: P. aeruginosa strain 1409; assay: Membrane rupture by propidium iodide staining; format: cell-based, Pseudomonas aeruginosa; conditions: LB medium, 25°C, 1 h, then PI 10 μg/ml 30 min
Description: as §1
After centrifugation at 3000 g for 10 min, cells were resuspended in the same volume of PBS (phosphate-buffered saline, 8 g/L NaCl, 0.2 g/L KCl, 1.44 g/L Na2HPO4, 0.24 g/L KH2PO4, pH 7.4). Then, PI was added to a final concentration of 10 μg/ml. After 30 min of incubation at 25°C, the cells were washed three times with PBS and immediately imaged with a fluorescence microscope.

FabG gene = assay: FabG transcription level by quantitative real-time PCR; format: cell-based, A. baumannii, E. coli, K. pneumoniae, P. aeruginosa; conditions: all four bacteria, RNAs from transcriptome analysis (16 μg/ml, 30 min), 2^-ΔΔCT, rpsL reference
Description: Quantitative real-time PCR (RT-PCR) was performed following the 2^-ΔΔCT method with RNAs from the aforementioned transcriptome analysis ([Livak and Schmittgen, 2001]; [Liu C. et al., 2014]). Untreated pathogen strains were used as the calibrator strains, and corresponding ribosomal rpsL genes were used as housekeeping reference genes with the primers shown in Supplementary Table S1 ([Dumas et al., 2006]).
FIGURE 5 Expression of FabG increased after tachyplesin treatment. Quantitative real-time PCR was performed following the 2^-ΔΔCT method. Untreated pathogen strains were used as the calibrator strains, and the corresponding ribosomal rpsL genes were used as housekeeping reference gene with the primers shown in Supplementary Table S1.

FabG from E. coli = target: T1, FabG from E. coli (Escherichia coli, UniProt P0AEK2); assay: Surface plasmon resonance binding; conditions: tachyplesin III on CM5 chip, FabG 1.25-10 μg/mL injected, HBS-N buffer
T1 construct: His tag (N); made in house; host or cells: E. coli BL21 DE3 (vector pET28a)
T1 sequence (P0AEK2 1-244): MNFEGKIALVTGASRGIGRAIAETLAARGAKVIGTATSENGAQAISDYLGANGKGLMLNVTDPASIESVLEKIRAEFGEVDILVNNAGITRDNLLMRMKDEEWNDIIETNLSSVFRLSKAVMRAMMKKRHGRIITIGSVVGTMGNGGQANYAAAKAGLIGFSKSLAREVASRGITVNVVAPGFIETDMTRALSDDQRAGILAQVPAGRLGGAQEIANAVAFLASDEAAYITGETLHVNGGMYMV
Description: N-terminal His-tagged FabG from E. coli and C-terminal His-tagged FabG from Staphylococcus aureus were cloned into the NcoI and XhoI cloning sites of the vector pET28a, expressed in BL21 DE3 E. coli and further purified with Ni resin ([Kristan et al., 2009]; [Srinivas and Cronan, 2017]). The binding interaction between tachyplesin III and FabG was analyzed by surface plasmon resonance (SPR) with a Biocore 3000 (Biocore, Piscataway, NJ, United States). Briefly, tachyplesin III was adsorbed onto a CM5 sensor chip using an amine-coupling kit (GE Healthcare, Little Chalfont, United Kingdom) to obtain approximately 1000 resonance units. […] The binding affinity of FabG for tachyplesin III was determined by BIAevaluation 3.0 software (Biacore) with a 1:1 Langmuir binding model for the kinetic calculation ([Wei et al., 2013]).
FIGURE 7 Tachyplesin III binding with FabG inhibits its enzyme activities in vitro, probably by blocking the active site. Binding interactions between tachyplesin III and FabG from E. coli (A) or from S. aureus (E) were analyzed by surface plasmon resonance (SPR) with a Biocore 3000 (Biocore, Piscataway, NJ, United States). […] Statistical significance was analyzed by one-way ANOVA followed by the Newman–Keuls multiple-comparisons test, ^∗∗p < 0.01, ^∗p < 0.05.

SMILES: CC[C@H](C)[C@@H]1NC(=O)CNC(=O)[C@H](CCCNC(=N)N)NC(=O)[C@H](Cc2ccc(O)cc2)NC(=O)[C@@H]2CSSC[C@H](NC1=O)C(=O)N[C@@H](Cc1ccc(O)cc1)C(=O)N[C@@H](CCCNC(=N)N)C(=O)N[C@@H](CCCCN)C(=O)N[C@H](C(=O)N[C@@H](CCCNC(=N)N)C(N)=O)CSSC[C@H](NC(=O)[C@H](Cc1c[nH]c3ccccc13)NC(=O)[C@@H](N)CCCCN)C(=O)N[C@@H](Cc1ccccc1)C(=O)N[C@@H](CCCNC(=N)N)C(=O)N[C@@H](C(C)C)C(=O)N2 [tachyplesin III] (H-KWCFRVCYRGICYRKCR-NH2; disulfide 3-16, 7-12 (inferred); N-terminus and C-terminus assumed)
- time stable in mouse serum [1]: at least 6 h
- cell viability [2]: Dramatic decreases in viability
- cell viability [3]: Dramatic decreases in viability
- 16 μg/ml tachyplesin III expressed as multiple of MIC (P. aeruginosa 1409): 2 × MIC
- membrane integrity (PI fluorescence) ([4]; 1/4× MIC): slight membrane breakage in a small proportion of the treated bacteria
- membrane integrity (PI fluorescence) ([4]; 4× MIC (high concentration)): complete membrane breakage of nearly all of the treated bacteria
- FabG expression by quantitative real-time PCR (FabG gene): elevations
- binding with FabG (SPR) (FabG from E. coli): could bind
